Where only a bound is given, the exact number is not on record here.

For the first experiment, the system named is Myotonic Dystrophy 1 affected patient fibroblasts (Coriel GM04602; 1600 CTG repeats). The experiment in a line: DM1 foci reduction assay (EC50 assay; CAG10-Cy3 FISH, foci per nucleus). Format: cell-based. To be noted: Homo sapiens, Fibroblast; DM1 patient fibroblasts, 48 h treatment, foci per nucleus; read-out: DM1 EC50, 48 h. In a few lines: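 Foci per nucleus counted by 20× imaging of 4 areas per well, after overnight FISH with 5 nM CAG10-Cy3 and DAPI staining of fixed, permeabilized cells. DM1 fibroblasts (GM04602, 1600 CTG) were dosed 48 h at 37 °C, 8 points, 3-fold dilutions, 3 μM top concentration.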
Usually EC50 stands for the midpoint of the concentration-response curve. Regarding `Cn1cc(NC(=O)c2nc(NC(=O)CCNC(=O)c3cc(NC(=O)c4nccn4C)cn3C)cn2C)cc1C(=O)NCCCC(=O)Nc1cn(C)c(C(=O)NCCC(=O)Nc2cc(C(=O)Nc3cn(C)c(C(=O)NCCCN4CCC(C#CC#CC5CCNCC5)CC4)n3)n(C)c2)n1` [Compound B-250], the EC50 fell in the range of 0.1 to 0.5 µM. Same read-out and setting: the same measure for `CN(C)c1ccc(C#CC#CCNC(=O)CCNC(=O)c2nc(NC(=O)c3cc(NC(=O)CCNC(=O)c4nc(NC(=O)CCCNC(=O)c5cc(NC(=O)c6nc(NC(=O)CCNC(=O)c7cc(NC(=O)c8nccn8C)cn7C)cn6C)cn5C)cn4C)cn3C)cn2C)cc1` [Compound B-133]: greater than 1 µM; for `Cn1cc(NC(=O)c2nc(NC(=O)CCNC(=O)c3cc(NC(=O)c4nccn4C)cn3C)cn2C)cc1C(=O)NCCCC(=O)Nc1cn(C)c(C(=O)NCCC(=O)Nc2cc(C(=O)Nc3cn(C)c(C(=O)NCCC(=O)NCCCN=C(N)N)n3)n(C)c2)n1` [Compound B-34]: 0.5 to 1 µM; for `CCCNC(=O)c1cc(NC(=O)c2nc(NC(=O)CCCNC(=O)c3cc(NC(=O)c4nc(NC(=O)CCNC(=O)c5cc(NC(=O)c6nccn6C)cn5C)cn4C)cn3C)cn2C)cn1C` [Compound B-67]: greater than 1 µM. Regarding `COCCOCCOCCOCCN(CCOCCOCCOCCOC)C(=O)CCCCn1cc(NC(=O)c2nc(NC(=O)CCNC(=O)c3cc(NC(=O)c4nccn4C)cn3C)cn2C)cc1C(=O)NCCCC(=O)Nc1cn(C)c(C(=O)NCCC(=O)Nc2cc(C(=O)Nc3cn(C)c(C(=O)NCCC(=O)N4CCC(N5CCN(C(=O)OC(C)(C)C)CC5)CC4)n3)n(C)c2)n1` [Compound B-242], the EC50 is greater than 1 µM. As to `Cn1cc(NC(=O)c2nc(NC(=O)CCNC(=O)c3cc(NC(=O)c4nccn4C)cn3C)cn2C)cc1C(=O)NCCCC(=O)Nc1cn(C)c(C(=O)NCCC(=O)Nc2cc(C(=O)Nc3cn(C)c(C(=O)NCCC(=O)N4CCN(CC5CCNCC5)CC4)n3)n(C)c2)n1` [Compound B-114], the 50% effective concentration (EC50) is 0.5 to 1 µM. In the case of `Cn1cc(NC(=O)c2nc(NC(=O)CCNC(=O)c3cc(NC(=O)c4nccn4C)cn3C)cn2C)cc1C(=O)NCCCC(=O)Nc1cn(C)c(C(=O)NCCC(=O)Nc2cc(C(=O)Nc3cn(C)c(C(=O)NCCC(=O)NCCCCCN4CCC(C#CC#CC5CCNCC5)CC4)n3)n(C)c2)n1` [Compound B-336], the EC50 was greater than 1 µM. On to `CCN(CC)CCCC[C@H](NC(=O)c1cccc(C(=O)OC(C)(C)C)c1)C(=O)NCCOCCOCCOCCNC(=O)CCNC(=O)c1nc(NC(=O)c2cc(NC(=O)CCNC(=O)c3nc(NC(=O)CCCNC(=O)c4cc(NC(=O)c5nc(NC(=O)CCNC(=O)c6cc(NC(=O)c7nccn7C)cn6C)cn5C)cn4C)cn3C)cn2C)cn1C` [Compound B-355], for which the EC50 lay within 0.1 to 0.5 µM. Still for that read-out and setting: under `CCCCCCN1CCC(C#CC#CC2CCN(CCCCCNC(=O)CCNC(=O)c3nc(NC(=O)c4cc(NC(=O)CCNC(=O)c5nc(NC(=O)CCCNC(=O)c6cc(NC(=O)c7nc(NC(=O)CCNC(=O)c8cc(NC(=O)c9nccn9C)cn8C)cn7C)cn6C)cn5C)cn4C)cn3C)CC2)CC1` [Compound B-183] stands greater than 1 µM; under `Cn1cc(NC(=O)c2nc(NC(=O)CCNC(=O)c3cc(NC(=O)c4nccn4C)cn3C)cn2C)cc1C(=O)NCCCC(=O)Nc1cn(C)c(C(=O)NCCC(=O)Nc2cc(C(=O)Nc3cn(C)c(C(=O)NCCC(=O)N4CC(c5cnc(CN(CCCCO)CCCCO)[nH]5)C4)n3)n(C)c2)n1` [Compound B-70], 0.1 to 0.5 µM; under `COCCOCCOCCOCCOCCOCCOCCOCCN(CCOCCOCCOCCOCCOCCOCCOCCOC)C(=O)CCNC(=O)c1nc(NC(=O)c2cc(NC(=O)CCNC(=O)c3nc(NC(=O)CCCNC(=O)c4cc(NC(=O)c5nc(NC(=O)CCNC(=O)c6cc(NC(C)c7nccn7C)cn6C)cn5C)cn4C)cn3C)cn2C)cn1C` (centres unmarked) [Compound B-80], greater than 1 µM. Consider `Cn1cc(NC(=O)c2nc(NC(=O)CCNC(=O)c3cc(NC(=O)c4nccn4C)cn3C)cn2C)cc1C(=O)NCCCC(=O)Nc1cn(C)c(C(=O)NCCC(=O)Nc2cc(C(=O)Nc3cn(C)c(C(=O)NCCC(=O)NCCO)n3)n(C)c2)n1` [Compound B-51], for which the EC50 lay in the range of 0.1 to 0.5 µM.

Take `CN1CCN(CC2CCN(C(=O)CCNC(=O)c3nc(NC(=O)c4cc(NC(=O)CCNC(=O)c5nc(NC(=O)CCCNC(=O)c6cc(NC(=O)c7nc(NC(=O)CCNC(=O)c8cc(NC(=O)c9nccn9C)cn8C)cn7C)cn6C)cn5C)cn4C)cn3C)CC2)CC1` [Compound B-129]: the EC50 is 0.1 to 0.5 µM. In the case of `CC(C)CCCN1CCC(C#CC#CCNC(=O)CCNC(=O)c2nc(NC(=O)c3cc(NC(=O)CCNC(=O)c4nc(NC(=O)CCCNC(=O)c5cc(NC(=O)c6nc(NC(=O)CCNC(=O)c7cc(NC(=O)c8nccn8C)cn7C)cn6C)cn5C)cn4C)cn3C)cn2C)CC1` [Compound B-191], the half-maximal effective concentration (EC50) was in the range of 0.1 to 0.5 µM. Consider `CCN(CC)CCCC[C@H](NC(=O)c1ccccc1)C(=O)NCCOCCOCCOCCOCCOCCNC(=O)c1nc(NC(=O)c2cc(NC(=O)CCNC(=O)c3nc(NC(=O)CCCNC(=O)c4cc(NC(=O)c5nc(NC(=O)CCNC(=O)c6cc(NC(=O)c7nccn7C)cn6C)cn5C)cn4C)cn3C)cn2C)cn1C` [Compound B-219], for which the EC50 lay within 0.5 to 1 µM. In the case of `Cn1cnc(NC(=O)c2cc(NC(=O)CCNC(=O)c3nc(NC(=O)CCCNC(=O)c4cc(NC(=O)c5nc(NC(=O)CCNC(=O)c6cc(NC(=O)c7nccn7C)cn6C)cn5C)cn4CCCCCCN=[N+]=[N-])cn3C)cn2C)c1` [Compound B-252], the EC50 was greater than 1 µM. `COCCOCCOCCOCCN(CCOCCOCCOCCOC)C(=O)CCCCn1cc(NC(=O)c2nc(NC(=O)CCNC(=O)c3cc(NC(=O)c4nccn4C)cn3C)cn2C)cc1C(=O)NCCCC(=O)Nc1cn(C)c(C(=O)NCCC(=O)Nc2cc(C(=O)Nc3cn(C)c(C(=O)NCCC(=O)N4CCC(C#CC#CC5CCN(C(C)=O)CC5)CC4)n3)n(C)c2)n1` [Compound B-259]: the EC50 is greater than 1 µM.

With `CCCNC(=O)CCNC(=O)c1nc(NC(=O)c2cc(NC(=O)CCNC(=O)c3nc(NC(=O)CCCNC(=O)c4cc(NC(=O)c5nc(NC(=O)c6cc(NC(=O)CCNC(=O)c7nccn7C)cn6C)cn5C)cn4C)cn3C)cn2C)cn1C` [Compound B-83], the EC50 was greater than 1 µM. With `Cn1cc(NC(=O)c2nc(NC(=O)CCNC(=O)c3cc(NC(=O)c4nccn4C)cn3C)cn2C)cc1C(=O)NCCCC(=O)Nc1cn(C)c(C(=O)NCCC(=O)Nc2cc(C(=O)Nc3cn(C)c(C(=O)NCCC(=O)NCC#CC#CC4CCN(Cc5ccc(C(C)(C)C)cc5)CC4)n3)n(C)c2)n1` [Compound B-189], the EC50 was greater than 1 µM. For `COC(=O)c1cccc(OCCOCCOCCNC(=O)c2nc(NC(=O)c3cc(NC(=O)CCNC(=O)c4nc(NC(=O)CCCNC(=O)c5cc(NC(=O)c6nc(NC(=O)CCNC(=O)c7cc(NC(=O)c8nccn8C)cn7C)cn6C)cn5C)cn4C)cn3C)cn2C)c1` [Compound B-339], the EC50 lay within 0.5 to 1 µM. The same measure, in the same setting: the same measure for `Cn1cc(NC(=O)c2nc(NC(=O)CCNC(=O)c3cc(NC(=O)c4nccn4C)cn3C)cn2C)cc1C(=O)NCCCC(=O)Nc1cn(C)c(C(=O)NCCC(=O)Nc2cc(C(=O)Nc3cn(C)c(C(=O)NCCCN4CCC(C#CC#CC5CCN(C(=O)OC(C)(C)C)CC5)CC4)n3)n(C)c2)n1` [Compound B-360]: less than 0.1 µM; for `Cn1cnc(NC(=O)c2cc(NC(=O)CCNC(=O)c3nc(NC(=O)CCCNC(=O)c4cc(NC(=O)c5nc(NC(=O)CCNC(=O)c6cc(NC(=O)c7nccn7C)cn6C)cn5C)cn4C)cn3C)cn2C)c1` [Compound B-243]: greater than 1 µM. The same measure, in the same setting: the same measure for `Cn1cc(NC(=O)c2nc(NC(=O)CCNC(=O)c3cc(NC(=O)c4nccn4C)cn3C)cn2C)cc1C(=O)NCCCC(=O)Nc1cn(C)c(C(=O)NCCC(=O)Nc2cc(C(=O)Nc3cn(C)c(C(=O)NCCC(=O)NC4CCCCC4)n3)n(C)c2)n1` [Compound B-53]: 0.1 to 0.5 µM; for `Cn1cc(NC(=O)c2nc(NC(=O)CCNC(=O)c3cc(NC(=O)c4nccn4C)cn3C)cn2C)cc1C(=O)NCCCC(=O)Nc1cn(C)c(C(=O)NCCC(=O)Nc2cc(C(=O)Nc3cn(C)c(C(=O)NCCCCCCCNC(=O)c4cccc(C(=O)OC(C)(C)C)c4)n3)n(C)c2)n1` [Compound B-338]: greater than 1 µM. The same measure, in the same setting: the same measure for `CC(C)CCC(=O)N1CCC(C#CC#CCNC(=O)CCNC(=O)c2nc(NC(=O)c3cc(NC(=O)CCNC(=O)c4nc(NC(=O)CCCNC(=O)c5cc(NC(=O)c6nc(NC(=O)CCNC(=O)c7cc(NC(=O)c8nccn8C)cn7C)cn6C)cn5C)cn4C)cn3C)cn2C)CC1` [Compound B-190]: greater than 1 µM; for `COC(=O)c1cccc(CCCCCN(C)CCCNC(=O)c2nc(NC(=O)c3cc(NC(=O)CCNC(=O)c4nc(NC(=O)CCCNC(=O)c5cc(NC(=O)c6nc(NC(=O)CCNC(=O)c7cc(NC(=O)c8nccn8C)cn7C)cn6C)cn5C)cn4C)cn3C)cn2C)c1` [Compound B-340]: less than 0.1 µM; for `CCN(CC)CCCC[C@H](NC(C)=O)C(=O)NCCOCCOCCOCCNC(=O)CCNC(=O)c1nc(NC(=O)c2cc(NC(=O)CCNC(=O)c3nc(NC(=O)CCCNC(=O)c4cc(NC(=O)c5nc(NC(=O)CCNC(=O)c6cc(NC(=O)c7nccn7C)cn6C)cn5C)cn4C)cn3C)cn2C)cn1C` [Compound B-86]: greater than 1 µM. In the case of `Cn1cc(NC(=O)c2nc(NC(=O)CCNC(=O)c3cc(NC(=O)c4nccn4C)cn3C)cn2C)cc1C(=O)NCCCC(=O)Nc1cn(C)c(C(=O)NCCC(=O)Nc2cc(C(=O)Nc3cn(C)c(C(=O)NCCC(=O)NCC#CC#CC4CCNCC4)n3)n(C)c2)n1` [Compound B-137, 1-methyl-4-(3-{[1-methyl-4-(1-methylimidazole-2-amido)pyrrol-2-yl]formamido}propanamido)-N-(1-methyl-5-{[3-({1-methyl-2-[(2-{[1-methyl-5-({1-methyl-2-[(2-{[5-(piperidin-4-yl)penta-2,4-diyn-1-yl]carbamoyl}ethyl)carbamoyl]imidazol-4-yl}carbamoyl)pyrrol-3-yl]carbamoyl}ethyl)carbamoyl]imidazol-4-yl}carbamoyl)propyl]carbamoyl}pyrrol-3-yl)imidazole-2-carboxamide], the EC50 was greater than 1 µM.

Still in this experiment, the particulars now being: Homo sapiens, Fibroblast; DM1 patient fibroblasts, foci per nucleus, 48 h treatment; read-out: DM1 EC50, 48 h.
With `CC(C)n1cc(NC(=O)c2nc(NC(=O)CCNC(=O)c3cc(NC(=O)c4nccn4C)cn3C)cn2C)cc1C(=O)NCC1(CC(=O)Nc2cn(C)c(C(=O)NCCC(=O)Nc3cc(C(=O)Nc4cn(C)c(C(=O)NCCCCN(C)C)n4)n(C)c3)n2)CC1` [Compound B-441], the EC50 is less than 0.1 µM.

(Values after patent publication US20250368628A1, “METHODS AND COMPOUNDS FOR MODULATING INHERITED GENETIC DISEASES” (Design Therapeutics, Inc., priority 2022, published 2025).)
